Patent US10870647B2, “Imidazopyridine derivative, method for preparing same, and pharmaceutical composition containing same as active ingredient for preventing or treating cancer” (DAEGU-GYEONGBUK MEDICAL INNOVATION FOUNDATION, priority 2016, dated 2020)
Read-outs that look alike come from different tables or passages of the source.

Experiments:
Assay in all cases: Kinase selectivity, scanMAX Kinase assay panel (DiscoverX), % control at 1 uM
Assay type in all cases: binding
[1] = target: T1, scanMAX Kinase assay panel (Homo sapiens, UniProt P00519, F317L); details: 1 uM, read-out: Percent Control (%)
T1 construct: purchased DiscoverX
How it was run: (§1)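 A single concentration of 1 uM, in DMSO, is applied across the kinase panel. Activity against an individual enzyme is assigned where % control is less than 35.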

[2] = target: T2, scanMAX Kinase assay panel (Homo sapiens, UniProt P29597); details: 1 uM, read-out: Percent Control (%)
T2 construct: purchased DiscoverX
How it was run: as §1

[3] = target: T3, scanMAX Kinase assay panel (Homo sapiens, UniProt P33981); details: TTK; 1 uM; read-out: Percent Control (%)
T3 construct: purchased DiscoverX
T3 sequence (P33981 1-857): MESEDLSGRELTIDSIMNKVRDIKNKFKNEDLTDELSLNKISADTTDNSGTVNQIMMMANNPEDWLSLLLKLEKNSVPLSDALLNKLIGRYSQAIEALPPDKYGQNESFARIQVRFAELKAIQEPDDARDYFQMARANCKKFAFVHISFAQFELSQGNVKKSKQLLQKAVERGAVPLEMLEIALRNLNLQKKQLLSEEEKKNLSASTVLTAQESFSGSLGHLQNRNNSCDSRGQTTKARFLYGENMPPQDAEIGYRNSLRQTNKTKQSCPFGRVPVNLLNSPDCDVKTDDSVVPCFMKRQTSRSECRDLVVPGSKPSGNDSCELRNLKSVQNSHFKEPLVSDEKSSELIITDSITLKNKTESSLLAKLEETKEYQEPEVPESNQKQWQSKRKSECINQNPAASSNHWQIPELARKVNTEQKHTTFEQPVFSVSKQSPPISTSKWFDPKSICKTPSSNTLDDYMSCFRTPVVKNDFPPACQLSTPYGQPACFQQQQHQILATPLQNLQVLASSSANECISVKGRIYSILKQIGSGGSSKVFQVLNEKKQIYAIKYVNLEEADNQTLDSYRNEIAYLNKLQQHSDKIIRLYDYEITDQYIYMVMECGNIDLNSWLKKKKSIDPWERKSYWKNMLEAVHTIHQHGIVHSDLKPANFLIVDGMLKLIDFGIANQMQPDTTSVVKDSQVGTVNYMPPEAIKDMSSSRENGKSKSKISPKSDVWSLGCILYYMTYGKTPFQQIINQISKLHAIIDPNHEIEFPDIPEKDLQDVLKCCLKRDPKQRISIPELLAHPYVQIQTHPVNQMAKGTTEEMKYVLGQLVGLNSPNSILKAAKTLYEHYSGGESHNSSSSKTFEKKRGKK
How it was run: as §1

[4] = target: T4, scanMAX Kinase assay panel (Homo sapiens, UniProt P35626); details: GRK3; 1 uM; read-out: Percent Control (%)
T4 construct: purchased DiscoverX
T4 sequence (P35626 1-688): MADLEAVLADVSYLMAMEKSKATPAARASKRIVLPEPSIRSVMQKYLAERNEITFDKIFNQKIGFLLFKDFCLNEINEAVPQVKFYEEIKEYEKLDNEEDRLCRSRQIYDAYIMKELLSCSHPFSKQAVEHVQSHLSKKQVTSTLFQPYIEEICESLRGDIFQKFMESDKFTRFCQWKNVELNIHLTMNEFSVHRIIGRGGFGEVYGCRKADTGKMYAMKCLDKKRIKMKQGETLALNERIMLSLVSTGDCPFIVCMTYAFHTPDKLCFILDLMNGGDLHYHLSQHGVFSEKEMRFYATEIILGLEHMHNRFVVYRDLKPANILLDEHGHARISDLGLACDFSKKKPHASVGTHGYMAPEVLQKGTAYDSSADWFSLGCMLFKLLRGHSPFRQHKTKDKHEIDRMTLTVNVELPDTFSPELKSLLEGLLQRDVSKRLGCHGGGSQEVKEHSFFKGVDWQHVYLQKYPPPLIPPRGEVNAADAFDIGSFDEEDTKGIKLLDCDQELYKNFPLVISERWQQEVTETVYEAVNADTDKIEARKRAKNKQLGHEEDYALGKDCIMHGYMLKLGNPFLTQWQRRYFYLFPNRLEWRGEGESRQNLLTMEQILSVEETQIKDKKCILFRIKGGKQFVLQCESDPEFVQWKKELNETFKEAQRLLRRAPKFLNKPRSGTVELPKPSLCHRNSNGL
How it was run: as §1

[5] = target: T5, scanMAX Kinase assay panel (Homo sapiens, UniProt P51812); details: 1 uM, read-out: Percent Control (%)
T5 construct: purchased DiscoverX
How it was run: as §1

[6] = target: T6, scanMAX Kinase assay panel (Homo sapiens, UniProt Q13237); details: PRKG2; 1 uM; read-out: Percent Control (%)
T6 construct: purchased DiscoverX
T6 sequence (Q13237 1-762): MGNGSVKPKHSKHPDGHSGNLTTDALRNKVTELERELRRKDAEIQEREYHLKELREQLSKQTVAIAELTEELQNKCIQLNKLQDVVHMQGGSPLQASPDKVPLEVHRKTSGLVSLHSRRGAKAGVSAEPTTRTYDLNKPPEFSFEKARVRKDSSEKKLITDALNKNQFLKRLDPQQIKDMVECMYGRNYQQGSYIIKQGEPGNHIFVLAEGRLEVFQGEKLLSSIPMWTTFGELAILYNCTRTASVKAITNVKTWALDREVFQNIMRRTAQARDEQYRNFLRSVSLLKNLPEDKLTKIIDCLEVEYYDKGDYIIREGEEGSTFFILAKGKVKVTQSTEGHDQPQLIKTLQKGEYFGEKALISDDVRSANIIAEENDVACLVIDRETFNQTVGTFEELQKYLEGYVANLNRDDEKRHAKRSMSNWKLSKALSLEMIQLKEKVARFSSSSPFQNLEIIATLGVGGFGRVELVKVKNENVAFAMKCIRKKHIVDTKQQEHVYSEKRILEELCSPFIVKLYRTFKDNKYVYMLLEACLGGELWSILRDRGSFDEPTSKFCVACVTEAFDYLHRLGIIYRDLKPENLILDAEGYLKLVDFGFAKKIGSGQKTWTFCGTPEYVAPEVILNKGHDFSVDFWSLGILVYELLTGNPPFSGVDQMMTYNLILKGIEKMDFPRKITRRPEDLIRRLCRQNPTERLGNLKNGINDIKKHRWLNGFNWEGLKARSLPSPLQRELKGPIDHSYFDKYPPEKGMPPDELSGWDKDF
How it was run: as §1

T1 sequence (P00519 whole entry F317L): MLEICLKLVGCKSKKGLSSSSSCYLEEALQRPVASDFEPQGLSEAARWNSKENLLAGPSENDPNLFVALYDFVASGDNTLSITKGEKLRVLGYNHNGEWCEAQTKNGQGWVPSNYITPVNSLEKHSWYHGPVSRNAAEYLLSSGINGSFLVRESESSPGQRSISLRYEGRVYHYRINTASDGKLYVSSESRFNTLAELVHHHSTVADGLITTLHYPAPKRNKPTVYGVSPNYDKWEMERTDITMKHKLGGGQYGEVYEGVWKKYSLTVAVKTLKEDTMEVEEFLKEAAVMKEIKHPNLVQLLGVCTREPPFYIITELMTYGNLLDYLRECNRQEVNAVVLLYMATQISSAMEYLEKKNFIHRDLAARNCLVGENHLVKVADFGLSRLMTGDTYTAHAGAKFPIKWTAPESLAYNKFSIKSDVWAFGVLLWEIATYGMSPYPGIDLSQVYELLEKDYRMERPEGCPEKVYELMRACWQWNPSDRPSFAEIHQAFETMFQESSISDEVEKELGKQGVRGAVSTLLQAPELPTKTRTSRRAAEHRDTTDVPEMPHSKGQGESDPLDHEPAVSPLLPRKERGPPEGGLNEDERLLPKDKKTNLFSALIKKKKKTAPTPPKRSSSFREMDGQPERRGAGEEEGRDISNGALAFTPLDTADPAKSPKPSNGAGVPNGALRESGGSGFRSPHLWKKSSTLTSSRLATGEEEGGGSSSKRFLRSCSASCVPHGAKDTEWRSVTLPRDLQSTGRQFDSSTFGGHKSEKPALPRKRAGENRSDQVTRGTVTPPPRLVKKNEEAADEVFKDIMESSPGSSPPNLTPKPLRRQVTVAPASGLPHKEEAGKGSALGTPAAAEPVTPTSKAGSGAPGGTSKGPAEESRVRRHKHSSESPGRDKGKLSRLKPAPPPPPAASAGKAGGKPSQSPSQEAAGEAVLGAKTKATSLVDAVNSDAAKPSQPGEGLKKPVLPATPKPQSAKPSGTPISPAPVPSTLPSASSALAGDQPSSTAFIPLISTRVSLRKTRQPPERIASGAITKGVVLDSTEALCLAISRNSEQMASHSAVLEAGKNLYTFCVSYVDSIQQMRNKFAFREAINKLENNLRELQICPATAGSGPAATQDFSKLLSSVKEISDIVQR
T2 sequence (P29597 whole entry): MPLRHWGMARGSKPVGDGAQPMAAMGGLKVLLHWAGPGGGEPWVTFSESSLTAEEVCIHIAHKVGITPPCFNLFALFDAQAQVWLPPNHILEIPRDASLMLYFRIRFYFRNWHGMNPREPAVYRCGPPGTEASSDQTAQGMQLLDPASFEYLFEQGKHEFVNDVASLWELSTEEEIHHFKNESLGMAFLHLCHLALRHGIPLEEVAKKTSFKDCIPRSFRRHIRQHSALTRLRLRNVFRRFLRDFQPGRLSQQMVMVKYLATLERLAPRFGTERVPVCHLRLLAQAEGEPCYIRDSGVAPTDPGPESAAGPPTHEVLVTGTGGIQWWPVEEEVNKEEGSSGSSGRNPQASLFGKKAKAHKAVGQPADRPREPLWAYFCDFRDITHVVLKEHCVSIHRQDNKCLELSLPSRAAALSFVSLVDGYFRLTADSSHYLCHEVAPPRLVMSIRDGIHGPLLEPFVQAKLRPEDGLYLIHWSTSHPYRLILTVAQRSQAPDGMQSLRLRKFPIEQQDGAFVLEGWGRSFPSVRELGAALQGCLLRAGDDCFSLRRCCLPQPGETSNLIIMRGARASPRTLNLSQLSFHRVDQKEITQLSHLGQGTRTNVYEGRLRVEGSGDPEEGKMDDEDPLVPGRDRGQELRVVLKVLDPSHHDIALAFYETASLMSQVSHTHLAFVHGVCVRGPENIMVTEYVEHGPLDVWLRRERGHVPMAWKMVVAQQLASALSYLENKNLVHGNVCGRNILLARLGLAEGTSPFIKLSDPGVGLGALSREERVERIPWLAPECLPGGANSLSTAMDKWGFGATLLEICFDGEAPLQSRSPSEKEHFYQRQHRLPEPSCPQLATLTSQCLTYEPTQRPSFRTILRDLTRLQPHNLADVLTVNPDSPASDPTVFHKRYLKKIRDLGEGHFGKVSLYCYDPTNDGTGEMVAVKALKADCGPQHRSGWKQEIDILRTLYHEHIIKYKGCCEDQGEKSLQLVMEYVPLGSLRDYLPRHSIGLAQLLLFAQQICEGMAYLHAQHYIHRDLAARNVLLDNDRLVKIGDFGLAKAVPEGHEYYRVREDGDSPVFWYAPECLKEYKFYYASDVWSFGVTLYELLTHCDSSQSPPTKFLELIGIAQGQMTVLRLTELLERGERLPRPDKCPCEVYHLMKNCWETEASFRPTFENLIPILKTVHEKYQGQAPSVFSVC
T5 sequence (P51812 whole entry): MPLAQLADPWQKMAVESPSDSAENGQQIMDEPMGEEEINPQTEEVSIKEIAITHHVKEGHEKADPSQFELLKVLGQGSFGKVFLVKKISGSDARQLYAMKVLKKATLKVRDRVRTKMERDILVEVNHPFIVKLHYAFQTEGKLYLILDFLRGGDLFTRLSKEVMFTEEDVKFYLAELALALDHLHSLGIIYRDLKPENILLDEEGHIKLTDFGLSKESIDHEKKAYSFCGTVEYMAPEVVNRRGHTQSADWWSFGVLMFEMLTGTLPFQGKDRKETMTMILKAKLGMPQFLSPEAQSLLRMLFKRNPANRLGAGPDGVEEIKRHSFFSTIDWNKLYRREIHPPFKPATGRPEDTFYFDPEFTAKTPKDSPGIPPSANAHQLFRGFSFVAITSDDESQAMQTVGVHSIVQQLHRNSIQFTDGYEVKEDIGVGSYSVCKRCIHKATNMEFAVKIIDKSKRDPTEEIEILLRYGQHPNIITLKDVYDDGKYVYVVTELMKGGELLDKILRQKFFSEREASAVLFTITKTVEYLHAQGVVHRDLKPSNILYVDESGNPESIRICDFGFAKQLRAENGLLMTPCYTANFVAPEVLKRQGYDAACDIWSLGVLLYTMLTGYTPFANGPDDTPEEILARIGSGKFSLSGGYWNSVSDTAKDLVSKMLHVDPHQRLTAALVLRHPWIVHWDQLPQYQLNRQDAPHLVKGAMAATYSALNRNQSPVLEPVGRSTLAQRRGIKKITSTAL

For `Cc1ccc(C(=O)Nc2ccc(CN3CCN(C)CC3)c(C(F)(F)F)c2)cc1C#Cc1cnc2c(Nc3cnn(C)c3)cccn12` [Example 1, 4-methyl-3-((8-((1-methyl-1H-pyrazol-4-yl)amino)imidazo[1,2-a]pyridin-3-yl)ethynyl)-N-(4-((4-methylpiperazin-1-yl)methyl)-3-(trifluoromethyl)phenyl)benzamide], the remaining binding at 1 µM ([1]; ABL1 (F317L)-nonphosphorylated) was 9%, the remaining binding at 1 µM ([1]; ABL1 (F317L)-phosphorylated) was 2% and the remaining binding at 1 µM ([2]; TYK2 (JH1domain-catalytic)) was 9%. It also gave a remaining binding at 1 µM ([2]; TYK2 (JH2domain-pseudokinase)) of 100%, a remaining binding at 1 µM [3] of 12% and a remaining binding at 1 µM [4] of 82%. For the same compound, the remaining binding at 1 µM ([5]; RSK2 (Kin.Dom.1-N-terminal)) was 35%, the remaining binding at 1 µM ([5]; RSK2 (Kin.Dom.2-C-terminal)) was 93% and the remaining binding at 1 µM [6] was 75%.
In the case of `Cc1cn(-c2cc(NC(=O)c3ccc(C)c(C#Cc4cnc5c(Nc6cnn(C)c6)cccn45)c3)cc(C(F)(F)F)c2)cn1` [Example 12, 4-methyl-N-(3-(4-methyl-1H-imidazol-1-yl)-5-(trifluoromethyl)phenyl)-3-((8-((1-methyl-1H-pyrazol-4-yl)amino)imidazo[1,2-a]pyridin-3-yl)ethynyl)benzamide], the remaining binding at 1 µM ([1]; ABL1 (F317L)-nonphosphorylated) is reported as 3%, the remaining binding at 1 µM ([1]; ABL1 (F317L)-phosphorylated) is reported as 6% and the remaining binding at 1 µM ([2]; TYK2 (JH1domain-catalytic)) is reported as 96%. For the same compound, the remaining binding at 1 µM ([2]; TYK2 (JH2domain-pseudokinase)) was 100%, the remaining binding at 1 µM [3] was 70% and the remaining binding at 1 µM [4] was 100%. The remaining binding at 1 µM ([5]; RSK2 (Kin.Dom.1-N-terminal)) was 100%, the remaining binding at 1 µM ([5]; RSK2 (Kin.Dom.2-C-terminal)) was 94% and the remaining binding at 1 µM [6] was 90%.
`Cc1ccc(NC(=O)C2(C(=O)Nc3ccc(F)cc3)CC2)cc1C#Cc1cnc2c(Nc3cnn(C(C)C)c3)cccn12` [Example 78] showed a remaining binding at 1 µM ([1]; ABL1 (F317L)-nonphosphorylated) of 16%, a remaining binding at 1 µM ([1]; ABL1 (F317L)-phosphorylated) of 85% and a remaining binding at 1 µM ([2]; TYK2 (JH1domain-catalytic)) of 97%. The remaining binding at 1 µM ([2]; TYK2 (JH2domain-pseudokinase)) was 100%, the remaining binding at 1 µM [3] was 100% and the remaining binding at 1 µM [4] was 97%. For the same compound, the remaining binding at 1 µM ([5]; RSK2 (Kin.Dom.1-N-terminal)) was 99%, the remaining binding at 1 µM ([5]; RSK2 (Kin.Dom.2-C-terminal)) was 81% and the remaining binding at 1 µM [6] was 100%.
